pEC50: −log10 of the molar value.

The subject of experiment [1] is Hepatitis C virus. Briefly: Antiviral activity against Hepatitis C virus genotype 1b in luciferase encoding genotype 1b replicons after 3 days by luciferase reporter assay. It is filed as functional, organism-based, Hepacivirus hominis. To be noted: 72 h.
Experiment [2] deals with Hepatitis C virus. Briefly: Antiviral activity against Hepatitis C virus genotype 1a in luciferase encoding genotype 1a replicons after 3 days by luciferase reporter assay. It is filed as functional, organism-based, Hepacivirus hominis. To be noted: subtype 1a, 72 h.

In the case of `C[C@@]1(O)[C@H](O)[C@@H](CO)O[C@H]1n1cnc2c(N)ncnc21`, the pEC50 with Hepatitis C virus [1] was 6.21; with Hepatitis C virus [2] it was 6.13. For `COc1ccc2c(O[C@@H]3C[C@H]4C(=O)N[C@]5(C(=O)O)C[C@H]5/C=C\CCCCC[C@H](NC(=O)OC5CCCC5)C(=O)N4C3)cc(-c3csc(NC(C)C)n3)nc2c1` [CILUPREVIR], the pEC50 with Hepatitis C virus [2] is 7.77. As for `CNC(=O)c1c(-c2ccc(F)cc2)oc2cc(N(CCO)S(C)(=O)=O)c(C3CC3)cc12` [NESBUVIR], the pEC50 was 7.66 in the experiment with Hepatitis C virus [1] and 7.35 in the experiment on Hepatitis C virus [2]. For `CCC[C@H](NC(=O)[C@@H]1[C@H]2CCC[C@H]2CN1C(=O)[C@@H](NC(=O)[C@@H](NC(=O)c1cnccn1)C1CCCCC1)C(C)(C)C)C(=O)C(=O)NC1CC1` [TELAPREVIR], the pEC50 in the experiment with Hepatitis C virus [1] was 5.77; in the experiment with Hepatitis C virus [2], 5.90.

For the origin of these results see ChEMBL document CHEMBL1629703, “Novel hepatitis C virus reporter replicon cell lines enable efficient antiviral screening against genotype 1a” (Antimicrob Agents Chemother, 2010).
